Patent US9186340B2, “Ischemia/reperfusion protection compositions and methods of using” (priority 2007, dated 2015)

Assays:
[1] = system: heart of hibernating ground squirrels; details: in vivo, ip
Procedure: The overall strategy of these experiments was to measure incorporation of isotope from infused ^13C-BHB into the brain pool of ^13C-BHB and into the tricarboxylic acid (TCA) cycle-derived metabolites such as glutamate, glutamine and aspartate. The same experiments were performed in parallel using [1-^13C2]-glucose (FIG. 1). A quantitative determination of BHB blood-brain transport and a rate of consumption (relative to glucose consumption) was determined in non-hibernating ground squirrels at euthermic temperatures and in hibernating ground squirrels at 4-6° C. Ground squirrels were anesthetized (isoflurane) prior to placement in the magnet of the magnetic resonance (MR) instrument and were injected with ^13C-BHB or [1-^13C2]-glucose.

[2] = system: rats subjected to 60% blood loss; assay: Rat hemorrhagic shock, 60% blood loss (Example 3); assay type: in vivo
Procedure: Rats infused with ketone bodies were subjected to 60% blood loss for at least 1 hour, followed by return of the shed blood. Endpoint measures of neuroprotection were quantitative analysis of neuronal survival and apoptosis in cortex, hippocampus and cerebellum as well as neurologic function exam scores. The objective was to determine the effectiveness of the D-form of beta-hydroxybutyrate (D-BHB) in conjunction with melatonin in protecting the brain from ischemia and providing protection from reperfusion injury after blood return.
The goal of the following experiments was to maintain 60% blood loss for at least three hours using a minimal amount of fluid in order to maintain viability. Sixty-percent blood loss was calculated by using the equation: Total blood volume=Animal body weight×0.06. A bolus volume of 1 ml ischemia/reperfusion protection composition per kilogram of animal body weight was given to animals after approximately 40% blood loss. Some animals only received a single 1 ml/kg bolus, while other animals received a slow infusion (100 μl/hr) to imitate an intravenous drip of solution after the bolus was given. […]
Once rats were fully anesthesized and stabilized for a 20 min period, blood loss was begun. […] Temperature was monitored with a rectal probe. […] Animal death was recorded when blood pressure, respiration, and precordial movement ceased (see FIG. 9 for a timeline). […]

| Structure (SMILES) | transport into the heart during hibernation [1] | survival following hemorrhagic shock versus 4 M NaCl ([2]; 60% blood loss, same osmolarity NaCl comparator) | survival versus NaCl, bolus followed by infusion ([2]; bolus followed by 100 μl/hr infusion, p-value<0.016) |
| --- | --- | --- | --- |
| [13CH3][C@@H](O)[13CH2]C(=O)O [^13C-D-BHB, [2,4-^13C] D-beta-hydroxybutyrate] | efficiently transported into the heart |  |  |
| C[C@@H](O)CC(=O)O [D-BHB, D-beta-hydroxybutyrate] |  | survived longer | lived significantly longer |
